Tests used:
human KCNQ4 = molecular target: T1, human KCNQ4 (Homo sapiens, UniProt P56696); assay: Whole-cell voltage clamp of KCNQ4 channel current in transfected CHO-K1 cells; format: cell-based; design: key to KCNQ4 (IDrug/IControl 100 nM): IDrug/IControl current amplitude ratio at -10 mV; conditions: for KCNQ4 (IDrug/IControl 100 nM): activation efficacy, 100 nM compound, -10 mV test pulse, CHO-K1 cells, mean ± SEM
T1 construct: host or cells: CHO-K1 (Chinese hamster ovary), transient transfection with Lipofectamine 2000, co-transfected with GFP
Description: (§1) The cell line used in the electrophysiological experiments was the Chinese hamster ovary cell line (CHO-K1); KCNQ cDNA was transformed into E. coli, expressed in E. coli, and then confirmed by plasmid extraction and sequencing.
(§2) CHO-K1 cells (Cell Bank of Chinese Academy of Sciences), medium formula: 50/50 DMEM/F-12 (Gibco), supplemented with 10% fetal bovine serum (FBS) (Gibco, Australia) and 2 mM L-glutamine (Invitrogen). Transfection and expression of KCNQ channels: 24 hours before transfection, cells were digested with trypsin (Sigma, China) and spread in a 6-well plate. Lipofectamine2000™ reagent (Invitrogen) was used for transfection, and the experiment was carried out according to the procedures provided. Twenty-four hours after transfection, cells were digested and seeded onto poly-L-lysine (Sigma)-soaked slides. After co-transfected with GFP (green fluorescent protein), the transfected cells were determined under a fluorescence microscope (Olympus). The human KCNQ2 plasmid (NCBI: NM_172107.4) and human KCNQ4 plasmid (NCBI: NM_004700.4) used were synthesized by Beijing Genomics Institute and constructed in the pcDNA3.1(+) vector plasmid. KCNQ2 and KCNQ4 plasmids were confirmed by plasmid extraction and sequencing after transformation into E. coli DH5α.
(§3) Whole-cell voltage clamp experiments were carried out at room temperature (23˜25° C.), where Axopatch-700B amplifier (Molecular Devices, Sunnyvale, CA) and Digidata 1440A (Molecular Devices) as digital-to-analog converter were used, pClamp 10.0 software (Molecular Devices, Sunnyvale, CA) was used for signal acquisition, the signal was filtered at 2 kHz, the sampling frequency was 10 kHz. Series resistance compensation was used and set to 60%. Pipettes were pulled from Borosilicate glass capillaries (World Precision Instruments, Sarasota, FL), and the resistance of the pipettes filled with an intracellular fluid was 3-5 MΩ. The perfusion drug delivery system was BPS-8 (ALA Scientific Instruments, Westburg, NY) with a speed of approximately 1 mL/min.
(§4) Intracellular fluid formulation for electrophysiological experiments: 145 mM KCl, 1 mM MgCl2, 5 mM EGTA, 10 mM HEPES, 5 mM MgATP (adjusted to pH=7.3 with KOH).
(§5) Extracellular fluid formulation for electrophysiological experiments: 140 mM NaCl, 5 mM KCl, 2 mM CaCl2), 1.5 mM MgCl2, 10 mM HEPES, 10 mM glucose (adjusted to pH=7.4 with NaOH).
(§6) To record the whole-cell currents of KCNQ2 and KCNQ4 channels, the cells were clamped at a holding potential of −120 mV, and then depolarized to −10 mV for a duration of 1500 ms, and the stimulation frequency was 0.1 Hz. The current amplitudes at the −10 mV test pulse before (IControl) and after (IDrug) the perfusion of the compounds were collected to determine the activation efficacy (IDrug/IControl).
(§7) A certain mass of the compound was weighed and dissolved in DMSO to prepare a 20 mM DMSO stock solution which was frozen and stored at −20° C. until use. […] This kind of concentration of DMSO has no effect on the detected KCNQ channel current. For example, to prepare 100 nM and 1 μM compound solutions, the gradient dilution method was as follows: 5 μL DMSO stock solution was first pipetted and added to 10 mL of extracellular fluid, and was dissolved evenly to obtain a 10 μM compound solution; then 1 mL of 10 μM compound solution was pipetted and added to 9 mL of extracellular fluid, dissolved evenly to obtain a 1 μM compound solution; then 1 mL of 1 μM compound was pipetted and added to 9 mL of extracellular fluid, dissolved evenly to obtain a 100 nM compound solution.
(§8) Data collection, analysis and processing were performed using pClamp10 (Molecular Devices, Sunnyvale, CA), GraphPad Prism 5 (GraphPad Software, San Diego, CA) and Excel (Microsoft Corporation) software. All data are expressed as mean±standard error. (Mean±SEM), significance analysis was performed using unpaired student's t-test. When P<0.05, the difference between the two groups was considered statistically significant. […]

human KCNQ2 = molecular target: T2, human KCNQ2 (Homo sapiens, UniProt O43526); assay: Whole-cell voltage clamp of KCNQ2 channel current in transfected CHO-K1 cells; format: cell-based; design: key to KCNQ2 (IDrug/IControl 100 nM): IDrug/IControl current amplitude ratio at -10 mV; conditions: for KCNQ2 (IDrug/IControl 100 nM): activation efficacy, 100 nM compound, -10 mV test pulse, CHO-K1 cells, mean ± SEM
T2 construct: host or cells: CHO-K1 (Chinese hamster ovary), transient transfection with Lipofectamine 2000, co-transfected with GFP
Description: as §1, §2, §3, §4, §5, §6, §7, §8

[1] = in vitro electrophysiological experiments

Compound | KCNQ4 (IDrug/IControl 100 nM) (human KCNQ4) | KCNQ4 agonistic activity (in words) (human KCNQ4; [1]) | KCNQ2 (IDrug/IControl 100 nM) (human KCNQ2) | KCNQ2 agonistic activity (in words) (human KCNQ2; [1])
C#CCN(Cc1ccc(F)cc1)c1ccc(NC(=O)OC(C)(C)C)cc1 [Compound K31] | 3.06 ± 0.61 | still had good KCNQ4 agonistic activity | 1.07 ± 0.04 | lost KCNQ2 agonistic activity
C#CCN(Cc1ccccc1F)c1ccc(NC(=O)OC(C)(C)C)cc1 [Compound K32] | 2.50 ± 0.28 | – | 1.05 ± 0.02 | –
C#CCN(Cc1cccc(F)c1)c1ccc(NC(=O)OC(C)(C)C)cc1 [Compound K33] | 3.00 ± 0.18 | – | 1.06 ± 0.03 | –
C#CCN(Cc1ccc(C(C)(C)C)cc1)c1ccc(NC(=O)OC(C)(C)C)cc1 [Compound K34] | 4.40 ± 0.62 | – | 1.07 ± 0.04 | –
C#CCN(Cc1ccc(Cl)cc1)c1ccc(NC(=O)OC(C)(C)C)cc1 [Compound K35] | 3.30 ± 0.62 | – | 0.98 ± 0.03 | –
C#CCN(Cc1ccc(Br)cc1)c1ccc(NC(=O)OC(C)(C)C)cc1 [Compound K36] | 3.50 ± 0.28 | – | 1.05 ± 0.03 | –
C#CCN(Cc1ccc(I)cc1)c1ccc(NC(=O)OC(C)(C)C)cc1 [Compound K37] | 3.28 ± 0.21 | – | 1.02 ± 0.04 | –
C#CCN(Cc1ccc([N+](=O)[O-])cc1)c1ccc(NC(=O)OC(C)(C)C)cc1 [Compound K38] | 1.66 ± 0.19 | – | 0.96 ± 0.01 | –
C#CCN(Cc1ccc(F)c(F)c1)c1ccc(NC(=O)OC(C)(C)C)cc1 [Compound K39] | 1.46 ± 0.02 | – | 1.10 ± 0.02 | –
C#CCN(Cc1ccc(F)c(C#N)c1)c1ccc(NC(=O)OC(C)(C)C)cc1 [Compound K40] | 1.26 ± 0.16 | – | 0.97 ± 0.02 | –
C#CCN(Cc1ccc(F)c(C(F)(F)F)c1)c1ccc(NC(=O)OC(C)(C)C)cc1 [Compound K41] | 1.69 ± 0.19 | – | 1.03 ± 0.02 | –
C#CCN(Cc1ccc(F)c([N+](=O)[O-])c1)c1ccc(NC(=O)OC(C)(C)C)cc1 [Compound K42] | 1.35 ± 0.08 | – | 1.02 ± 0.02 | –
C#CCN(Cc1ccc(Br)c(F)c1)c1ccc(NC(=O)OC(C)(C)C)cc1 [Compound K43] | 2.72 ± 0.38 | – | 0.98 ± 0.00 | –

From patent publication US20250122148A1, “HIGH-SELECTIVITY KCNQ4 POTASSIUM CHANNEL AGONIST, PREPARATION METHOD THEREFOR AND USE THEREOF” (SHANGHAI INSTITUTE OF MATERIA MEDICA, CHINESE ACADEMY OF …, priority 2022, published 2025)
